Data published in patent publication US6342360B1 (priority 1988, dated 2002).
“And” between values parts separate entries of the source, which are not always exact repeats. Equal entries are not always repeated. “Also recorded” adds a separate entry of the source. Where two headings read alike, the source gives them in different places.

Key:
rat D2 dopamine receptor = rat D2 dopamine receptor (Rattus norvegicus, UniProt P61169)
Protocol: (§1) The homogenizing solution was centrifuged at 800×g for 10 min. and the pellet was subjected to a second homogenization and centrifugation as before. The supernatants were pooled and centrifuged at 200,000×g for 1 hour. […] In some experiments 100 uM guanosine 5′-triphosphate was included. […] Incubations were initiated by the addition of 15-40 μg of protein, carried out at 37° C. for 50 minutes, and stopped by the addition of 10 ml of ice-cold wash buffer (10 mM Tris, pH=7.4, and 0.9% NaCl) to each assay. The samples were filtered through glass-fiber filters (Schleicher and Schuell No. 30) and washed with an additional 10 ml of wash buffer. The radioactivity retained on the filter was counted using a Beckman LS 1701 scintillation counter. Data were analyzed as previously described (29) except that curves were drawn using the data analysis program Enzfitter. The resulting IC50 values were converted to Ki values by the method of Cheng and Prusoff (30).

dopamine-D2 receptor [1] = target: T1, dopamine-D2 receptor (Rattus norvegicus, UniProt P61169); assay: cAMP accumulation in GH4ZR7 cells
Protocol: (§2) cAMP and PRL Assay: Cells were plated in 6-well, 35 mm dishes, 3-7 days prior to experimentation. Cells were pre-incubated in 2 ml/well warm F10+0.1% (−)-ascorbic acid+20 mM Tris (pH 7.2) (FAT) for 5-10 min, followed by addition of 1 ml/well of FAT+100 μm IBMX+experimental compounds, and incubated for 30 min. at 37° C. Experimental compounds were diluted 200- to 1000-fold from stock solutions made immediately prior to assay. […] Media were collected, and the cells were lysed immediately in 1 ml of boiling water. Cell lysates and media were centrifuged (2000×g, 10 min., 4° C.), and the supernatants collected for assay as cell extracts. Cell extracts and media samples were frozen at −20° C. until assay, if not assayed immediately. cAMP was assayed by a specific radioimmunoassay as described (22), with antibody used at 1:500 dilution. After 16 h incubation at 4° C., 20 μl of 10% BSA and 1 ml of 95% ethanol were added consecutively to precipitate the antibody-antigen complex. […] PRL was assayed in the media samples obtained as described above, except that IBMX was omitted during the 30 min incubation in FAT medium. PRL levels were determined by specific radioimmunoassay using Staphyloccus A lysate (IgSorb, The Enzyme Center, Malden, Mass.) to precipitate antigen-antibody complexes (23).

[2] = target: human dopamine D2 receptor (Homo sapiens, UniProt P14416); assay: [3H]-domperidone binding to L-hPitD2Zem membranes
Protocol: The 2.5-kb human pituitary cDNA (hPitD2) was cloned into pZem3 (a gift from Dr. E. Mulvihill, Zymogenetics) and co-transfected with the pRSVneo gene into mouse Ltk^− cells by CaPo4 precipitation (10). A stable transfectant (L-hPitD2Zem) was selected and maintained in 750 μg/ml of G418 (Geneticin sulphate, Gibco). Twenty hours prior to the harvesting of membranes, these cells were incubated with 70 μM zinc sulphate. […] For the binding assays, membrane protein was used at 10-15 μg from L-hPitD2Zem, 50-75 μg from L-RGB2Zem-1, and 220-250 μg from rat striatum. […] The filters were washed twice in ice cold 50 mM Tris-HCl, pH 7.4. […] The Bmax, Kd, and IC50 values were determined as previously described (14).

[3] = target: T2, rat dopamine D-2 receptor (Rattus norvegicus, UniProt P61169); settings: for blockade of inhibition of adenylate cyclase by 10 μM DA: 10 μM (+)-butaclamol in assay, pertussis toxin 50 ng/ml 16 hours on cells
Protocol: Adenylate cyclase assay: The conversion of [α^32P]ATP to [^32P]cAMP was determined essentially as described by Salomon et al. (14). […] Assays were initiated by warming to 25° and terminated after 20 minutes by cooling to 0°, then adding trichloroacetic acid (100 μl of a 30% solution) to each assay. [^3H]Cyclic AMP (approximately 30,000 cpm) was added to each assay as an internal standard. The assay volume was brought up to 1 ml with water, and tubes were centrifuged for 10 min. at 2000×g. Cyclic AMP in the supernatant was isolated by sequential chromatography on columns containing Dowex AG50W-X4 resin and neutral alumina. The 2-ml eluate from each column of alumina was dissolved in 10 ml of Bio-Safe II (RPI, Mount Prospect, Ill.) for liquid scintillation counting. Dose-response curves for inhibition of adenylate cyclase activity by agonists were analyzed by nonlinear regression using the program Enzfitter. The data were fit to the equation:
where E is the amount of enzyme activity, expressed as percentage of total stimulated activity, A is the concentration of agonists, EC50 is the concentration of agonist causing half-maximal inhibition of enzyme activity, Emax is the enzyme activity observed in the presence of maximally inhibiting concentrations of agonist, expressed as the percentage of total stimulated activity, and N is a slope factor. Averages of EC50 values are the geometric means.

dopamine-D2 receptor [4] = target: T1, dopamine-D2 receptor; assay: Adenylate cyclase activity in membranes from GH4ZR7 cells; assay type: biochemical; set-up: Full-length dopamine-D2 cDNA (17) was excised from λGT10 with Sal I; expressed in transfected cells; settings: for efficacy: forskolin-stimulated adenylate cyclase
Protocol: Adenylate Cyclase Assay: The conversion of α^32P-ATP to ^32P-cAMP was determined essentially as described by Salomon et al. (24). […] Assays carried out in triplicate were initiated by warming to 25° C. and terminated by cooling to 0° C. Trichloroacetic acid (100 μl of 30% solution) was added to each assay, and ^3H-cAMP (30,000 cpm) was added to each tube as an internal standard. The assay volume was increased to 1 ml by addition of water, and tubes were centrifuged (2000 g×10 min). cAMP in the supernatant was isolated by sequential chromatography on columns containing Dowex AG50W-X4 resin and neutral alumina. The 2-ml eluate from each alumina columntwas dissolved in 10 ml of Bio-Safe II (RPI, Mount Prospect, Ill.) for liquid scintillation counting. Calculations: Data from cAMP and PRL assays are expressed as means±standard error for triplicate determinations. Curve-fitting parameters were obtained by nonlinear regression analysis using the Enzfitter program (Elsevier Biosoft). Average affinity, EC50 and IC50 values are geometric means of the indicated number of experiments. In competition experiments, KI values were calculated from experimentally determined IC50 values by the method of Cheng and Prusoff (25).

dopamine-D2 receptor [5] = target: T1, dopamine-D2 receptor; assay: Acute PRL release in GH4ZR7 cells; assay type: cell-based; set-up: Full-length dopamine-D2 cDNA (17) was excised from λGT10 with Sal I; expressed in transfected cells; settings: 30 min
Protocol: as §2

[6] = tested on: D2 dopamine receptors in rat striatal membranes; assay: 3H-spiperone binding to rat striatal membranes; settings: at the concentrations used
Protocol: as §1

[7] = target: T2, rat dopamine D-2 receptor
Protocol: Receptor binding assay: The membrane preparation was thawed, centrifuged at 24,000×g for 20 min., and resuspended in Tris-isosaline except where indicated. […] Assays were carried out in duplicate in a volume of 2 ml for saturation analyses or 1 ml for inhibition analyses. Incubations were initiated by the addition of 15-50 μg of protein, carried out at 37° for 50 min., and stopped by the addition of 10 ml of ice-cold wash buffer (10 mM Tris, pH 7.4, and 0.9% NaCl) to each assay. The samples were filtered through glass-fibre filters (Schleicher & Schuell No. 30) and washed with an additional 10 ml of wash buffer. […] Data were analyzed by nonlinear regression using the data analysis program Enzfitter (Elsevier-Biosoft). […] Averages for KI and KD values are the geometric means. In experiments designed to assess the effect of GTP and NaCl on the binding of DA, fresh tissue was used. Cells were harvested, centrifuged, and Mg^2+ resuspended in Tris-Mg^2+ (50 mM Tris, pH 7.4, and 4 mM MgCl2). Tissue was incubated for 15 min. at 37° in this buffer before re-centrifugation.

T2 sequence (P61169 1-415 isoform P61169-2): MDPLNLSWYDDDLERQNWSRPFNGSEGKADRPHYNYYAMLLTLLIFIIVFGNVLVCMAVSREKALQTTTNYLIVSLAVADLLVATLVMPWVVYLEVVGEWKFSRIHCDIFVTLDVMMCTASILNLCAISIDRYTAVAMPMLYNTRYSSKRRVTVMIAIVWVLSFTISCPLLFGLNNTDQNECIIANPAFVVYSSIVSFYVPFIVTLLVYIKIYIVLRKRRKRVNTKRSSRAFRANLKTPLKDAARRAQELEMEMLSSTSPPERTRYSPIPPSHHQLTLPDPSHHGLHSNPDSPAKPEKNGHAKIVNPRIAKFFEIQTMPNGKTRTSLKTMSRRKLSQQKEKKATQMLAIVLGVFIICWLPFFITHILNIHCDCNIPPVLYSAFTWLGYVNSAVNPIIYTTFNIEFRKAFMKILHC
T1 sequence (P61169 1-415 isoform P61169-2): as above
Chain of human dopamine D2 receptor (P14416 whole entry): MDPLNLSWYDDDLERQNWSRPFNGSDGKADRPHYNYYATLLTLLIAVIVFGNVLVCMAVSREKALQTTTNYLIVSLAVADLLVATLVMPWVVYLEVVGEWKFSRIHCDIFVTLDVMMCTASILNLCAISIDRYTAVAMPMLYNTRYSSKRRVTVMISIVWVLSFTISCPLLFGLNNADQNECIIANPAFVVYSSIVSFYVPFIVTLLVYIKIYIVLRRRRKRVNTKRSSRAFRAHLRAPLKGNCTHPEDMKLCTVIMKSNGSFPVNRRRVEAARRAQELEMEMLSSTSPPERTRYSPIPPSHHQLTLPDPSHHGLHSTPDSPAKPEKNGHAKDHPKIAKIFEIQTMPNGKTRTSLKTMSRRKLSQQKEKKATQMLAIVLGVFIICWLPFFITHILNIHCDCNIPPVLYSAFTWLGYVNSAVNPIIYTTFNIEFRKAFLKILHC
Chain of rat D2 dopamine receptor (P61169 1-415 isoform P61169-2): as the sequence (P61169 1-415 isoform P61169-2) above
Protocol for GH4C1 cells: as §2

O=C(c1ccc(F)cc1)C1CCN(CCn2c(=O)[nH]c3ccccc3c2=O)CC1 [ketanserin]
potency at inhibiting 3H-spiperone binding (rat D2 dopamine receptor; L-RGB2Zem-1 membranes): much less potent

CCN1CCC[C@H]1CNC(=O)c1cc(S(N)(=O)=O)ccc1OC [(−)-sulpiride]
blockade of dopamine inhibition of cAMP accumulation (dopamine-D2 receptor [1]): blocked dopamine action | effect of antagonist alone on basal cAMP (dopamine-D2 receptor [1]; absence of dopamine): did not alter basal cAMP levels

O=C(CCCN1CCC2(CC1)C(=O)NCN2c1ccccc1)c1ccc(F)cc1 [spiperone]
blockade of dopamine inhibition of cAMP accumulation (dopamine-D2 receptor [1]): blocked dopamine action | effect of antagonist alone on basal cAMP (dopamine-D2 receptor [1]): did not alter basal cAMP levels

CCN1CCCC1CNC(=O)c1cc(S(N)(=O)=O)ccc1OC (single isomer, unassigned; (+)) [(+)-sulpiride]
blockade of dopamine inhibition of cAMP accumulation (dopamine-D2 receptor [1]): did not block; also recorded: little or no effect

CN1CCN2c3ccccc3Cc3ccccc3C2C1 (centres unmarked) [mianserin]
inhibition of domperidone binding ([2]; [3H]-domperidone 1 nM): only at very high concentrations

(+)-butaclamol
potency at inhibiting 3H-spiperone binding (rat D2 dopamine receptor): most potent inhibitors | blockade of inhibition of adenylate cyclase by 10 μM DA [3]: prevented

VIP: vasoactive intestinal peptide
VIP-induced enhancement of cAMP levels (dopamine-D2 receptor [1]): 8-12 times basal levels | total adenylate cyclase activity stimulated (dopamine-D2 receptor [4]; 200 nM VIP, n=3): 22±7 pmol/mg protein/min | enhancement of PRL secretion (dopamine-D2 receptor [5]): 1.5 fold

CCCN1CCCC(c2cccc(O)c2)C1 (single isomer, unassigned; (+)) [(+)3-PPP, 3-(3-hydroxyphenyl)-N-n-propylpiperidine]
efficacy (dopamine-D2 receptor [4]): as efficacious as dopamine

pertussis toxin
effect of pretreatment on inhibition of basal and VIP-stimulated cAMP by dopamine (dopamine-D2 receptor [1]; pertussis toxin 50 ng/ml, 16 h): abolished | blockade of inhibition of adenylate cyclase by 10 μM DA [3]: blocked | forskolin-stimulated adenylate cyclase activity versus control membranes ([3]; membranes from pertussis toxin-treated cells): approximately 2.5 fold | effect of pretreatment on dopamine inhibition of forskolin-stimulated adenylate cyclase (dopamine-D2 receptor [4]; pertussis toxin 16 h): uncoupled

CCN1CCCC1CNC(=O)c1cc(S(N)(=O)=O)ccc1OC (centres unmarked) [sulpiride]
share of (+)-butaclamol-displaceable binding not inhibited [6]: 10-15%

CC(C)C[C@H]1C(=O)N2CCC[C@H]2[C@]2(O)O[C@](NC(=O)[C@@H]3C=C4c5cccc6[nH]c(Br)c(c56)C[C@H]4N(C)C3)(C(C)C)C(=O)N12 [bromocriptine]
Ki ([7]; [3H]spiroperidol 0.2 nM, GTP and NaCl present, geometric mean of 2 experiments): 2.4 nM | rank among the six compounds tested ([7]; inhibition of radioligand binding, LZR1): most potent | Ki ([7]; read-out: KI for inhibition of [3H]spiroperidol binding, single experiment FIG. 9A, radioligand 230 pM): 5 nM | Ki ([7]; read-out: mean KI, 0.1 mM GTP and 120 mM NaCl, LZR1 membranes): 2 nM | Hill coefficient ([7]; single experiment FIG. 9A): 1.05 | EC50 [3]: 45 nM and 40 nM | Max (maximal inhibition of adenylate cyclase activity) [3]: 17 ± 1% | agonist activity / efficacy [3]: less efficacious than DA | inhibition of forskolin-stimulated adenylate cyclase activity (dopamine-D2 receptor [4]): 23% | maximal inhibition (dopamine-D2 receptor [4]): 23% | EC50 (dopamine-D2 receptor [4]; read-out: EC50): 6 nM | EC50 (dopamine-D2 receptor [4]; read-out: EC50, inhibition of adenylate cyclase): 5 nM

NCCc1ccc(O)c(O)c1 [dopamine]
effect on basal, VIP-stimulated or TRH-stimulated PRL secretion (GH4C1 cells; GH4C1 cells, data not shown): no effect | effect on extracellular cAMP levels (GH4C1 cells; wild-type GH4C1 cells, VIP omitted or present): no effect

CCCN1CCCC(c2cccc(O)c2)C1 (single isomer, unassigned; (-)) [(−)3-PPP, 3-(3-hydroxyphenyl)-N-n-propylpiperidine]
Hill coefficient ([7]; single experiment FIG. 9A): 0.89 | efficacy (dopamine-D2 receptor [4]): did not consistently reduce

(−)-butaclamol
inhibition of domperidone binding [2]: only at very high concentrations
